# pEC50: −log10 of the molar value.
# Molecular target: T1, USP7 (Homo sapiens, UniProt Q93009)
# T1 construct: full length human USP7 protein; made in house
# Assay: USP7, Ub-PLA2 assay
# Assay type: biochemical
# Conditions: Ub-PLA2 / NBD C6-HPC fluorescence, 30 minute preincubation; read-out: EC50 for inhibition of USP7
# Summary of the method: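 Compounds tested against USP7 with DMSO vehicle control and NEM-treated wells as background. Fluorescence (RFU) read-out; % inhibition normalized per plate to mean DMSO and NEM controls.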
# T1 sequence (Q93009 whole entry): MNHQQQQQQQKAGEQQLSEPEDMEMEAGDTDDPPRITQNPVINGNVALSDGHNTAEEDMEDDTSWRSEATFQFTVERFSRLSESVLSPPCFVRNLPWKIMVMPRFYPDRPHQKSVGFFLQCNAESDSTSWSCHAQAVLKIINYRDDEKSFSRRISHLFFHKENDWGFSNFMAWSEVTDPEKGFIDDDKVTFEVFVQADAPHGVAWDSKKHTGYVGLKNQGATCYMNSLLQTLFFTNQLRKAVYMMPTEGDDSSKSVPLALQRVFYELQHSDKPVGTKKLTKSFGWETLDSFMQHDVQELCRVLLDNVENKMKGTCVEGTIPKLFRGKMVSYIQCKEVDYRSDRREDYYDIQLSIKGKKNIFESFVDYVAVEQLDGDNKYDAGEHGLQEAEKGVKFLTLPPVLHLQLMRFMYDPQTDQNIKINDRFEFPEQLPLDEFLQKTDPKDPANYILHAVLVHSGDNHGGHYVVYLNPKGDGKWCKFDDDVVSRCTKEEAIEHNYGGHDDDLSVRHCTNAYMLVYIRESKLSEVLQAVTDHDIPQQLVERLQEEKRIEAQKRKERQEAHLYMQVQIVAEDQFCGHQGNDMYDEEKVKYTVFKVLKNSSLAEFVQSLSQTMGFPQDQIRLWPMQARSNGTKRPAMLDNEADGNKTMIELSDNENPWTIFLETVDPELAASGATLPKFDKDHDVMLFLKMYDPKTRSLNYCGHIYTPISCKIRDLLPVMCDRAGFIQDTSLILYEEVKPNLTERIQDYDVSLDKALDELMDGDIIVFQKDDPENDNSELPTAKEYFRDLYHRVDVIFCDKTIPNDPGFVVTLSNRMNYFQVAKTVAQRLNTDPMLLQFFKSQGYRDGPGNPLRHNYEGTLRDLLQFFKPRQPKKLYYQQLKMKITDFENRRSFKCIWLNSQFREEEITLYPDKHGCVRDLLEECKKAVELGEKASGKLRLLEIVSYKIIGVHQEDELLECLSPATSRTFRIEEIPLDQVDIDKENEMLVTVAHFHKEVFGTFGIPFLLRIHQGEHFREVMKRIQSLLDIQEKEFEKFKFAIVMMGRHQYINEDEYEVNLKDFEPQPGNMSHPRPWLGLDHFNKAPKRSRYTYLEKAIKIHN
row,pEC50,Compound
1,≥ 6.00,"O=C(NCc1ccc(O)cc1)c1cc([N+](=O)[O-])c(Sc2c(Cl)cncc2Cl)s1 [Example 165, 5-((3,5-dichloropyridin-4-yl)thio)-N-(4-hydroxybenzyl)-4-nitrothiophene-2-carboxamide]"
2,≥ 6.00,"Cn1nccc1NC(=O)c1cc([N+](=O)[O-])c(Sc2c(Cl)cncc2Cl)s1 [Example 167, 5-((3,5-dichloropyridin-4-yl)thio)-N-(1-methyl-1H-pyrazol-5-yl)-4-nitrothiophene-2-carboxamide]"
3,≥ 6.00,"COc1cc(NC(=O)c2cc([N+](=O)[O-])c(Sc3c(Cl)cncc3Cl)s2)cc(OC)c1OC [Example 169, 5-((3,5-dichloropyridin-4-yl)thio)-4-nitro-N-(3,4,5-trimethoxyphenyl)thiophene-2-carboxamide]"
4,≥ 6.00,"COc1ccc(NC(=O)c2cc([N+](=O)[O-])c(Sc3c(Cl)cncc3Cl)s2)cc1OC [Example 170, 5-((3,5-dichloropyridin-4-yl)thio)-4-nitro-N-(3,4-dimethoxyphenyl)thiophene-2-carboxamide]"
5,≥ 6.00,"CSc1ccc(NC(=O)c2cc([N+](=O)[O-])c(Sc3c(Cl)cncc3Cl)s2)cc1 [Example 174, 5-((3,5-dichloropyridin-4-yl)thio)-N-(4-(methylthio)phenyl)-4-nitrothiophene-2-carboxamide]"
6,≥ 6.00,"O=C(NC12CC3CC(CC(O)(C3)C1)C2)c1cc([N+](=O)[O-])c(Sc2c(Cl)cncc2Cl)s1 [Example 176, 5-((3,5-dichloropyridin-4-yl)thio)-N-((1r,3s,5R,7S)-3-hydroxyadamantan-1-yl)-4-nitrothiophene-2-carboxamide]"
7,≥ 6.00,"O=C(NC1CC2CCC1C2)c1cc([N+](=O)[O-])c(Sc2c(Cl)cncc2Cl)s1 (stereo not drawn) [Example 177, N-(bicyclo[2.2.1]heptan-2-yl)-5-((3,5-dichloropyridin-4-yl)thio)-4-nitrothiophene-2-carboxamide]"
8,≥ 6.00,"CC1(C)CC(NC(=O)c2cc([N+](=O)[O-])c(Sc3c(Cl)cncc3Cl)s2)CC(C)(C)N1 [Example 178, 5-((3,5-dichloropyridin-4-yl)thio)-4-nitro-N-(2,2,6,6-tetramethylpiperidin-4-yl)thiophene-2-carboxamide]"
9,≥ 6.00,"O=C(Nc1ccc(O)cc1)c1cc([N+](=O)[O-])c(Sc2c(Cl)cncc2Cl)s1 [Example 181, 5-((3,5-dichloropyridin-4-yl)thio)-N-(4-hydroxyphenyl)-4-nitrothiophene-2-carboxamide]"
10,≥ 6.00,"CC(=O)c1ccc(NC(=O)c2cc([N+](=O)[O-])c(Sc3c(Cl)cncc3Cl)s2)cc1 [Example 183, N-(4-acetylphenyl)-5-((3,5-dichloropyridin-4-yl)thio)-4-nitrothiophene-2-carboxamide]"
11,≥ 6.00,"CCN1CCC(CCNC(=O)c2cc([N+](=O)[O-])c(Sc3c(Cl)cncc3Cl)s2)CC1 [Example 185, 5-((3,5-dichloropyridin-4-yl)thio)-N-(2-(1-ethylpiperidin-4-yl)ethyl)-4-nitrothiophene-2-carboxamide]"
12,≥ 6.00,"CCn1cnc(NC(=O)c2cc([N+](=O)[O-])c(Sc3c(Cl)cncc3Cl)s2)n1 [Example 186, 5-((3,5-dichloropyridin-4-yl)thio)-N-(1-ethyl-1H-1,2,4-triazol-3-yl)-4-nitrothiophene-2-carboxamide]"
13,≥ 6.00,"CC(C)N1CCC(NC(=O)c2cc([N+](=O)[O-])c(Sc3c(Cl)cncc3Cl)s2)CC1 [Example 187, 5-((3,5-dichloropyridin-4-yl)thio)-N-(1-isopropylpiperidin-4-yl)-4-nitrothiophene-2-carboxamide]"
14,≥ 6.00,"CN1CCCC(NC(=O)c2cc([N+](=O)[O-])c(Sc3c(Cl)cncc3Cl)s2)C1 (stereo not drawn) [Example 189, 5-((3,5-dichloropyridin-4-yl)thio)-N-(1-methylpiperidin-3-yl)-4-nitrothiophene-2-carboxamide]"
15,≥ 6.00,"CN1CCC(CNC(=O)c2cc([N+](=O)[O-])c(Sc3c(Cl)cncc3Cl)s2)CC1 [Example 190, 5-((3,5-dichloropyridin-4-yl)thio)-N-((1-methylpiperidin-4-yl)methyl)-4-nitrothiophene-2-carboxamide]"
16,≥ 6.00,"O=C(NCCCN1CCCC1)c1cc([N+](=O)[O-])c(Sc2c(Cl)cncc2Cl)s1 [Example 191, 5-((3,5-dichloropyridin-4-yl)thio)-4-nitro-N-(3-(pyrrolidin-1-yl)propyl)thiophene-2-carboxamide]"
17,≥ 6.00,"CSCCCNC(=O)c1cc([N+](=O)[O-])c(Sc2c(Cl)cncc2Cl)s1 [Example 194, 5-((3,5-dichloropyridin-4-yl)thio)-N-(3-(methylthio)propyl)-4-nitrothiophene-2-carboxamide]"

row,pEC50,Compound
1,≥ 6.00,"O=C(NC1CCNC1)c1cc([N+](=O)[O-])c(Sc2c(Cl)cncc2Cl)s1 (stereo not drawn) [Example 195, 5-((3,5-dichloropyridin-4-yl)thio)-4-nitro-N-(pyrrolidin-3-yl)thiophene-2-carboxamide]"
2,≥ 6.00,"O=C(NC1CCNCC1)c1cc([N+](=O)[O-])c(Sc2c(Cl)cncc2Cl)s1 [Example 196, 5-((3,5-dichloropyridin-4-yl)thio)-4-nitro-N-(piperidin-4-yl)thiophene-2-carboxamide]"
3,5.00 to 6.00,"O=C(NC1CCN(C2CC2)C1)c1cc([N+](=O)[O-])c(Sc2c(Cl)cncc2Cl)s1 (stereo not drawn) [Example 198, N-(1-cyclopropylpyrrolidin-3-yl)-5-((3,5-dichloropyridin-4-yl)thio)-4-nitrothiophene-2-carboxamide]"
4,5.00 to 6.00,"CC(=O)N1CCC(NC(=O)c2cc([N+](=O)[O-])c(Sc3c(Cl)cncc3Cl)s2)C1 (stereo not drawn) [Example 199, N-(1-acetylpyrrolidin-3-yl)-5-((3,5-dichloropyridin-4-yl)thio)-4-nitrothiophene-2-carboxamide]"
5,≥ 6.00,"CN(C)CCC(NC(=O)c1cc([N+](=O)[O-])c(Sc2c(Cl)cncc2Cl)s1)c1ccccc1 (stereo not drawn) [Example 200, 5-((3,5-dichloropyridin-4-yl)thio)-N-(3-(dimethylamino)-1-phenylpropyl)-4-nitrothiophene-2-carboxamide]"
6,5.00 to 6.00,CN(C)CCCOc1ccc(NC(=O)c2cc(C#N)c(Sc3c(Cl)cncc3Cl)s2)cc1 [Example 204]
7,5.00 to 6.00,"N#Cc1cc(C(=O)Nc2cnc3ccccc3c2)sc1Sc1c(Cl)cncc1Cl [Example 207, 4-cyano-5-((3,5-dichloropyridin-4-yl)thio)-N-(quinolin-3-yl)thiophene-2-carboxamide]"
8,≥ 6.00,"CS(=O)(=O)c1ccc(NC(=O)c2cc(C#N)c(Sc3c(Cl)cncc3Cl)s2)cc1 [Example 208, 4-cyano-5-((3,5-dichloropyridin-4-yl)thio)-N-(4-(methylsulfonyl)phenyl)thiophene-2-carboxamide]"
9,5.00 to 6.00,"CCOC(=O)CNC(=O)c1cc([N+](=O)[O-])c(Sc2c(Cl)cncc2Cl)s1 [Example 209, Ethyl 2-(5-((3,5-dichloropyridin-4-yl)thio)-4-nitrothiophene-2-carboxamido)acetate]"
10,5.00 to 6.00,"O=C(O)CNC(=O)c1cc([N+](=O)[O-])c(Sc2c(Cl)cncc2Cl)s1 [Example 210, 2-(5-((3,5-dichloropyridin-4-yl)thio)-4-nitrothiophene-2-carboxamido)acetic acid]"
11,5.00 to 6.00,"O=C(NCC(=O)N1CCC(O)CC1)c1cc([N+](=O)[O-])c(Sc2c(Cl)cncc2Cl)s1 [Example 211, 5-((3,5-dichloropyridin-4-yl)thio)-N-(2-(4-hydroxypiperidin-1-yl)-2-oxoethyl)-4-nitrothiophene-2-carboxamide]"
12,5.00 to 6.00,"O=C(NCC(=O)N1CCCC(O)C1)c1cc([N+](=O)[O-])c(Sc2c(Cl)cncc2Cl)s1 (stereo not drawn) [Example 212, 5-((3,5-dichloropyridin-4-yl)thio)-N-(2-(3-hydroxypiperidin-1-yl)-2-oxoethyl)-4-nitrothiophene-2-carboxamide]"
13,5.00 to 6.00,"COCCCNC(=O)CNC(=O)c1cc([N+](=O)[O-])c(Sc2c(Cl)cncc2Cl)s1 [Example 213, 5-((3,5-dichloropyridin-4-yl)thio)-N-(2-((3-methoxypropyl)amino)-2-oxoethyl)-4-nitrothiophene-2-carboxamide]"
14,5.00 to 6.00,"COCCNC(=O)CNC(=O)c1cc([N+](=O)[O-])c(Sc2c(Cl)cncc2Cl)s1 [Example 214, 5-((3,5-dichloropyridin-4-yl)thio)-N-(2-((2-methoxyethyl)amino)-2-oxoethyl)-4-nitrothiophene-2-carboxamide]"
15,5.00 to 6.00,"O=C(NCC(=O)N1CCC(CO)CC1)c1cc([N+](=O)[O-])c(Sc2c(Cl)cncc2Cl)s1 [Example 215, 5-((3,5-dichloropyridin-4-yl)thio)-N-(2-(4-(hydroxymethyl)piperidin-1-yl)-2-oxoethyl)-4-nitrothiophene-2-carboxamide]"
16,5.00 to 6.00,"O=C(NCC(=O)N1CCC(F)CC1)c1cc([N+](=O)[O-])c(Sc2c(Cl)cncc2Cl)s1 [Example 216, 5-((3,5-dichloropyridin-4-yl)thio)-N-(2-(4-fluoropiperidin-1-yl)-2-oxoethyl)-4-nitrothiophene-2-carboxamide]"
17,5.00 to 6.00,"CN(C)CCNC(=O)CNC(=O)c1cc([N+](=O)[O-])c(Sc2c(Cl)cncc2Cl)s1 [Example 217, 5-((3,5-dichloropyridin-4-yl)thio)-N-(2-((2-(dimethylamino)ethyl)amino)-2-oxoethyl)-4-nitrothiophene-2-carboxamide]"

row,Compound,pEC50
1,"CN1C2CCC1CC(NC(=O)c1cc([N+](=O)[O-])c(Sc3c(Cl)cncc3Cl)s1)C2 (stereo not drawn) [Example 184, 5-((3,5-dichloropyridin-4-yl)thio)-N-(8-methyl-8-azabicyclo[3.2.1]octan-3-yl)-4-nitrothiophene-2-carboxamide]",≥ 6.00
2,"O=C(NC1CN2CCC1CC2)c1cc([N+](=O)[O-])c(Sc2c(Cl)cncc2Cl)s1 (stereo not drawn) [Example 202, 5-((3,5-dichloropyridin-4-yl)thio)-4-nitro-N-(quinuclidin-3-yl)thiophene-2-carboxamide]",≥ 6.00

# From patent US8680139B2 (Progenra, priority 2009, dated 2014)
